From the supplement of paper PMC13380429

What was measured:
[1] = system: A549-ACE2 infected with SARS-CoV-2; experiment: morphology score (similarity to uninfected cells); higher = more like uninfected cells; details: 24 h
Vero E6 [2] = experiment: cell viability relative to DMSO; higher = less toxic; details: 72 h
U2OS [3] = experiment: as above; details: 72 h
Calu-3 [4] = experiment: as above; details: 72 h
HepG2 [5] = experiment: as above; details: 72 h
Caco-2 [6] = experiment: as above; details: 72 h
Vero E6 [7] = experiment: relative viability EC50 (midpoint between 100% and the lowest measured viability); higher = less toxic; details: 72 h
Calu-3 [8] = experiment: as above; details: 72 h
Vero E6 [9] = experiment: drug sensitivity score (DSS) for viability; higher = more toxic; extreme values may be limits of the assay; details: 72 h
U2OS [10] = experiment: as above; details: 72 h
Calu-3 [11] = experiment: as above; details: 72 h
HepG2 [12] = experiment: as above; details: 72 h
Caco-2 [13] = experiment: as above; details: 72 h
A549-ACE2 [14] = experiment: drug-induced phospholipidosis relative to tamoxifen; higher = more phospholipidosis
A549-ACE2 [15] = experiment: phospholipidosis EC50; higher = less potent phospholipidosis inducer
[16] = system: A549-ACE2 infected with SARS-CoV-2; experiment: SARS-CoV-2 infection rate relative to DMSO; higher = more infection; details: 24 h
[17] = system: A549-ACE2 infected with SARS-CoV-2; experiment: cell count relative to DMSO; higher = less toxic; details: 24 h
U2OS [18] = experiment: relative viability EC50 (midpoint between 100% and the lowest measured viability); higher = less toxic; details: 72 h
HepG2 [19] = experiment: as above; details: 72 h
Caco-2 [20] = experiment: as above; details: 72 h

O=[N+]([O-])c1ccccc1S(=O)(=O)NCC1CCC(CNC[C@H]2CCc3ccccc3C2)CC1 (stereo not given in full) [NTNCB]
morphology score ([1]; 0.1 µM): 0.29
morphology score ([1]; 0.3 µM): -0.23
morphology score ([1]; 1 µM): 0.28
morphology score ([1]; 3 µM): 0.73
cell viability (Vero E6 [2]; 1 nM): 94.9%
cell viability (Vero E6 [2]; 10 nM): 95.3%
cell viability (Vero E6 [2]; 100 nM): 89.8%
cell viability (Vero E6 [2]; 1000 nM): 94.5%
cell viability (Vero E6 [2]; 10000 nM): 79.2%
cell viability (U2OS [3]; 1 nM): 96.2%
cell viability (U2OS [3]; 10 nM): 93%
cell viability (U2OS [3]; 100 nM): 99.6%
cell viability (U2OS [3]; 1000 nM): 94.9%
cell viability (U2OS [3]; 10000 nM): 72.5%
cell viability (Calu-3 [4]; 1 nM): 104%
cell viability (Calu-3 [4]; 10 nM): 103%
cell viability (Calu-3 [4]; 100 nM): 96.6%
cell viability (Calu-3 [4]; 1000 nM): 105%
cell viability (Calu-3 [4]; 10000 nM): 15%
cell viability (HepG2 [5]; 1 nM): 99.1%
cell viability (HepG2 [5]; 10 nM): 96.6%
cell viability (HepG2 [5]; 100 nM): 91%
cell viability (HepG2 [5]; 1000 nM): 101%
cell viability (HepG2 [5]; 10000 nM): 57.1%
cell viability (Caco-2 [6]; 1 nM): 93.7%
cell viability (Caco-2 [6]; 10 nM): 95.2%
cell viability (Caco-2 [6]; 100 nM): 98.8%
cell viability (Caco-2 [6]; 1000 nM): 86.6%
cell viability (Caco-2 [6]; 10000 nM): 64.8%
relative viability EC50 (Vero E6 [7]): > 10 µM
relative viability EC50 (Calu-3 [8]): 3.49 µM
drug sensitivity score (Vero E6 [9]): 0.9
drug sensitivity score (U2OS [10]): 1.9
drug sensitivity score (Calu-3 [11]): 4.3
drug sensitivity score (HepG2 [12]): 2.1
drug sensitivity score (Caco-2 [13]): 3.3
drug-induced phospholipidosis (A549-ACE2 [14]; 0.3 µM, 24 h): 2.25%
drug-induced phospholipidosis (A549-ACE2 [14]; 0.3 µM, 48 h): 4.73%
drug-induced phospholipidosis (A549-ACE2 [14]; 0.3 µM, 72 h): 6.41%
drug-induced phospholipidosis (A549-ACE2 [14]; 0.833333 µM, 24 h): 13.4%
drug-induced phospholipidosis (A549-ACE2 [14]; 0.833333 µM, 48 h): 11.2%
drug-induced phospholipidosis (A549-ACE2 [14]; 0.833333 µM, 72 h): 10.5%
drug-induced phospholipidosis (A549-ACE2 [14]; 3.33333 µM, 24 h): 66.1%
drug-induced phospholipidosis (A549-ACE2 [14]; 3.33333 µM, 48 h): 54.3%
drug-induced phospholipidosis (A549-ACE2 [14]; 3.33333 µM, 72 h): 45.9%
drug-induced phospholipidosis (A549-ACE2 [14]; 6.66667 µM, 24 h): 101%
drug-induced phospholipidosis (A549-ACE2 [14]; 6.66667 µM, 48 h): 93.7%
drug-induced phospholipidosis (A549-ACE2 [14]; 6.66667 µM, 72 h): 102%
drug-induced phospholipidosis (A549-ACE2 [14]; 10 µM, 24 h): 91.2%
drug-induced phospholipidosis (A549-ACE2 [14]; 10 µM, 48 h): 117%
drug-induced phospholipidosis (A549-ACE2 [14]; 10 µM, 72 h): 126%
drug-induced phospholipidosis (A549-ACE2 [14]; 30 µM, 24 h): 45.6%
drug-induced phospholipidosis (A549-ACE2 [14]; 30 µM, 48 h): 42.7%
phospholipidosis EC50 (A549-ACE2 [15]; 24 h): 1.46 µM
phospholipidosis EC50 (A549-ACE2 [15]; 48 h): 3.21 µM
phospholipidosis EC50 (A549-ACE2 [15]; 72 h): 5.01 µM
SARS-CoV-2 infection rate ([16]; 0.1 µM): 90%
SARS-CoV-2 infection rate ([16]; 0.3 µM): 102%
SARS-CoV-2 infection rate ([16]; 1 µM): 84%
SARS-CoV-2 infection rate ([16]; 3 µM): 36%
cell count ([17]; 0.1 µM): 101%
cell count ([17]; 0.3 µM): 99%
cell count ([17]; 1 µM): 103%
cell count ([17]; 3 µM): 119%

Cc1cc(Nc2ccc(NC(=O)c3ccc(Nc4ccnc5ccccc45)cc3)cc2)nc(N)n1 [SGI-1027]
morphology score ([1]; 0.1 µM): 0.25
morphology score ([1]; 0.3 µM): -0.15
morphology score ([1]; 1 µM): 0.65
morphology score ([1]; 3 µM): 0.16
cell viability (Vero E6 [2]; 1 nM): 96.9%
cell viability (Vero E6 [2]; 10 nM): 99%
cell viability (Vero E6 [2]; 100 nM): 94.7%
cell viability (Vero E6 [2]; 1000 nM): 96.6%
cell viability (Vero E6 [2]; 10000 nM): 63.9%
cell viability (U2OS [3]; 1 nM): 98.1%
cell viability (U2OS [3]; 10 nM): 104%
cell viability (U2OS [3]; 100 nM): 103%
cell viability (U2OS [3]; 1000 nM): 104%
cell viability (U2OS [3]; 10000 nM): 1%
cell viability (Calu-3 [4]; 1 nM): 106%
cell viability (Calu-3 [4]; 10 nM): 109%
cell viability (Calu-3 [4]; 100 nM): 112%
cell viability (Calu-3 [4]; 1000 nM): 106%
cell viability (Calu-3 [4]; 10000 nM): 2.8%
cell viability (HepG2 [5]; 1 nM): 110%
cell viability (HepG2 [5]; 10 nM): 108%
cell viability (HepG2 [5]; 100 nM): 104%
cell viability (HepG2 [5]; 1000 nM): 39.5%
cell viability (HepG2 [5]; 10000 nM): -0.3%
cell viability (Caco-2 [6]; 1 nM): 103%
cell viability (Caco-2 [6]; 10 nM): 114%
cell viability (Caco-2 [6]; 100 nM): 103%
cell viability (Caco-2 [6]; 1000 nM): 99.4%
cell viability (Caco-2 [6]; 10000 nM): 13.1%
relative viability EC50 (U2OS [18]): 3.39 µM
relative viability EC50 (Calu-3 [8]): 3.48 µM
relative viability EC50 (HepG2 [19]): 0.844 µM
relative viability EC50 (Caco-2 [20]): 3.12 µM
drug sensitivity score (Vero E6 [9]): 2.3
drug sensitivity score (U2OS [10]): 5.2
drug sensitivity score (Calu-3 [11]): 5
drug sensitivity score (HepG2 [12]): 12.6
drug sensitivity score (Caco-2 [13]): 4.9
drug-induced phospholipidosis (A549-ACE2 [14]; 0.3 µM, 24 h): 6.15%
drug-induced phospholipidosis (A549-ACE2 [14]; 0.3 µM, 48 h): 5.31%
drug-induced phospholipidosis (A549-ACE2 [14]; 0.3 µM, 72 h): 4.09%
drug-induced phospholipidosis (A549-ACE2 [14]; 0.833333 µM, 24 h): 4.67%
drug-induced phospholipidosis (A549-ACE2 [14]; 0.833333 µM, 48 h): 4.66%
drug-induced phospholipidosis (A549-ACE2 [14]; 0.833333 µM, 72 h): 2.03%
drug-induced phospholipidosis (A549-ACE2 [14]; 3.33333 µM, 24 h): 40.2%
drug-induced phospholipidosis (A549-ACE2 [14]; 3.33333 µM, 48 h): 44.4%
drug-induced phospholipidosis (A549-ACE2 [14]; 3.33333 µM, 72 h): 32.5%
drug-induced phospholipidosis (A549-ACE2 [14]; 6.66667 µM, 24 h): 55.8%
drug-induced phospholipidosis (A549-ACE2 [14]; 6.66667 µM, 48 h): 77.3%
drug-induced phospholipidosis (A549-ACE2 [14]; 6.66667 µM, 72 h): 76.8%
phospholipidosis EC50 (A549-ACE2 [15]; 24 h): 2.95 µM
phospholipidosis EC50 (A549-ACE2 [15]; 48 h): 3.26 µM
phospholipidosis EC50 (A549-ACE2 [15]; 72 h): 3.61 µM
SARS-CoV-2 infection rate ([16]; 0.1 µM): 91%
SARS-CoV-2 infection rate ([16]; 0.3 µM): 101%
SARS-CoV-2 infection rate ([16]; 1 µM): 59%
SARS-CoV-2 infection rate ([16]; 3 µM): 24%
cell count ([17]; 0.1 µM): 106%
cell count ([17]; 0.3 µM): 95%
cell count ([17]; 1 µM): 106%
cell count ([17]; 3 µM): 34%
